Data on 3 compounds can be found in patent US10265321B2, “Uses of salt-inducible kinase (SIK) inhibitors” (Dana-Farber Cancer Institute, Inc., priority 2014, dated 2019).

Read-outs that look alike come from different tables or passages of the source.

For test [1], the system named is IL-10 production by zymosan-stimulated BMDCs. As to the kind of experiment: IL-10 up-regulation in zymosan-stimulated BMDCs (AlphaLISA/ELISA). The class given is cell-based, mouse. How it is done:
(§1) Bone marrow-derived DCs were differentiated from C57BL/6 bone marrow in the presence of GM-CSF-conditioned media. CD11c^+ CX3CR1^hi myeloid cells and CD11c^+ CX3CR1^− DCs were isolated from the small intestine lamina propria of Cx3cr1^eGFP/+ mice (12). Detection of cell-surface Thy1.1 expression on BMDCs from 10BiT reporter mice was conducted as described previously (24). Cell viability was estimated by change in total cellular ATP levels using CellTiterGlo assays (Promega). Preparation of recombinant SIK proteins and IC50 measurements were conducted as described previously (21). Total RNA was extracted using a NucleoSpin 96 RNA isolation kit (Macherey-Nagel) followed by cDNA synthesis and multiplex RT-PCR using a microfluidic dynamic array (Fluidigm). The concentrations of TNF-α, IL-6, IL-10, IL-12p40, IL-1β and RANTES in culture supernatants were detected using a FlexSet Cytometric bead array (BD Biosciences). Alternatively, IL-10 secretion was quantified using ELISA (BD Biosciences) or AlphaLISA (PerkinElmer) assays. NO production was estimated based on nitrate content in culture medium using the Greiss reagent.
C57BL/6 mice were euthanized and bone marrow harvested from femurs and tibias as described previously (Graham D B, et al. (2007) An ITAM-signaling pathway controls cross-presentation of particulate but not soluble antigens in dendritic cells. The Journal of experimental medicine 204(12):2889-2897). BMDCs were differentiated DMEM supplemented with 2 mM GlutaMAX, 10% (vol/vol) FBS, penicillin, streptomycin and 2% mouse GM-CSF conditioned media derived from TOPO cells. Cultures were differentiated for 7 days and routinely analyzed for >90% CD11c (APC anti-CD11c clone HL3; BD Biosciences) positivity by flow cytometry before use in experiments. Lentiviral transduction of bone marrow cultures was conducted by addition of 293T culture supernatants containing lentiviral particles encoding the CREB dependent luciferase reporter construct or CRTC3 targeting or control shRNAs one day post-isolation. Stable integration of lentiviral shRNA constructs was selected by addition of puromycin (3 μg/mL) on day 4 post-transduction. After 2 days, stably transduced BMDCs were released from selection and used in subsequent assays. Unless otherwise indicated, cells were treated for 2 days with PGE2 (5 μM) or HG-9-91-01 (0.5 μM) or an equivalent concentration of DMSO (≤0.5%) and then stimulated for 18 hr with LPS (100 ng/mL), R848 (10 μg/mL) or zymosan (4 μg/mL).
BMDCs were seeded into black 384-well plates (Corning) at 20,000 cells/well in 40 μL complete DMEM using a Multidrop COMBI (Thermal Scientific) followed by incubation at 37° C. for 2 hr to allow for plate adherence. SIK inhibitors (100 nL/well) were pin-transferred from concentrated DMSO stocks using CyBi-Well Vario (CyBio) into duplicate plates. For each treatment plate, 32 out of 384 wells were pinned with DMSO as negative control and 32 out of 384 wells were pinned with PGE2 (5 μM final concentration). Two days after SIK inhibitor treatment, BMDCs were stimulated with zymosan (4 μg/mL final concentration) dispersed in culture medium (20 μL/well) using a Multidrop COMBI. After 18 hr, 5 μL of resulting supernatant was transferred from the culture plate to white 384-well AlphaLISA plates (Perkin Elmer) using a CyBi-Well Vario. IL-10 abundance in the supernatants was determined using an AlphaLISA assay (PerkinElmer) according to the manufacture's protocol and signal intensity measured using an EnVision multimode plate reader. SIK inhibitor activity was expressed as a % of the differences between the mean abundance of IL-10 in PGE2 versus DMSO wells on a per plate basis. Cell viability assays were conducted on the same tissue culture plates as the IL-10 assay. First media was removed and replaced by solution of 50% (vol/vol) CellTiter-Glo (Promega) in PBS. […]
Background: Bead proximity is the source of the signal in Alpha formats.

The target of the next test is T1, SIK2 (Homo sapiens, UniProt Q9H0K1).
T1 construct: made in house
As to the kind of experiment: Protein kinase assay ([γ-32P] ATP, phosphocellulose paper) against SIK2. The class given is biochemical. Conditions: for remaining activity at 0.1 µM / remaining activity at 1 µM: DMSO set to 100%; for remaining activity at 0.1 µM: read-out: Activity of protein kinase treated with 0.1 μM of I-1 (% control (DMSO)) SIK2; for remaining activity at 1 µM: read-out: Activity of protein kinase treated with 1 μM of I-1 (% control (DMSO)) SIK2; for IC50: read-out: Enzyme Inhibition IC50 SIK2. How it is done: as §1
In another set of experiments, the activities of the SIK inhibitors described herein against SIK were determined according to the methods reported in Hastie et al., Nature Protocols, 2006, 1, 968-971.
This buffer consisted of 50 mM Tris-HCl, pH 7.5, 0.1 mM EGTA, 1 mg ml^−1 bovine serum albumin and 0.1% (vol/vol) 2-mercaptoethanol.
An assay buffer of 500 mM Tris-HCl, pH 7.5, 1 mM EGTA, and 100 mM magnesium acetate was used for the protein kinase assay.
The specific activity of the [γ-^32P] ATP solution was 1×10^5 to 1×10^6 c.p.m. per nmol depending on what was needed to produce an optimal signal/noise ratio. Stocks of nonradioactive (“cold”) ATP were dissolved in 10 mM HEPES, and the pH of the resulting stock solutions was adjusted to 7.4. To measure the concentration of ATP, a sample of such a stock solution was diluted to 20 μM, and the absorbance of the diluted sample was measured at 259 nm. The absorbance of a 20-μM stock solution of ATP at 259 nm was about 0.31. The 1-mM solution of cold ATP was “spiked” with [γ-^32P] ATP to produce a radioactivity of 1×10^5 to 1×10^6 c.p.m. per nmol.
1) The number of assay samples needed was determined based on, e.g., the following considerations: (i) each condition was assayed in duplicate; (ii) two controls containing peptide or protein substrate and ATP but no SIK were included to assess contamination by any free ATP not incorporated into substrate, alongside two controls lacking a peptide or protein substrate but containing ATP and SIK to correct for any incorporation of phosphate into the kinase itself (e.g., autophosphorylation); and (iii) a maximum of 40 samples were assayed manually at one time by a single person. Microcentrifuge tubes were label distinctly and were placed on ice.
4) Dilute the SIK in enzyme dilution buffer and place on ice.
5) Pipette 5 j±l of 10× concentrated assay buffer, 5 j±l peptide or protein substrate (the two “no-substrate” control tubes had 5 j±l water added instead of peptide or protein substrate), and 30 μl distilled water into each tube. Keep the tubes on ice.
6) Add 5 μl diluted SIK to each tube, except for the two “no-enzyme” control tubes, which had 5 μl enzyme dilution buffer added, and still keeping the tubes on ice. In some cases, premixed “cocktails” of assay components were prepared containing peptide or protein substrate, assay buffer, and distilled water to limit the number of additions to each assay tube. Each of steps 7 to 14 was done behind a plexiglass shield.
7) Insert each tube into the water bath at intervals of 15 s to allow the assay mixture to reach 30° C. Begin the SIK reactions by adding 5 μl of 1 mM [γ-^32P] ATP to each tube at intervals of 15 s. Close each tube, vortex for 1 s to mix the contents and immediately replace in a rack in the water bath. Incubate for 10 min at 30° C. […]

The mark [2] stands for this setting: Mus musculus, BMDC, zymosan-stimulated BMDCs, read-out: IL-10 induction EC50.

T1 sequence (Q9H0K1 whole entry): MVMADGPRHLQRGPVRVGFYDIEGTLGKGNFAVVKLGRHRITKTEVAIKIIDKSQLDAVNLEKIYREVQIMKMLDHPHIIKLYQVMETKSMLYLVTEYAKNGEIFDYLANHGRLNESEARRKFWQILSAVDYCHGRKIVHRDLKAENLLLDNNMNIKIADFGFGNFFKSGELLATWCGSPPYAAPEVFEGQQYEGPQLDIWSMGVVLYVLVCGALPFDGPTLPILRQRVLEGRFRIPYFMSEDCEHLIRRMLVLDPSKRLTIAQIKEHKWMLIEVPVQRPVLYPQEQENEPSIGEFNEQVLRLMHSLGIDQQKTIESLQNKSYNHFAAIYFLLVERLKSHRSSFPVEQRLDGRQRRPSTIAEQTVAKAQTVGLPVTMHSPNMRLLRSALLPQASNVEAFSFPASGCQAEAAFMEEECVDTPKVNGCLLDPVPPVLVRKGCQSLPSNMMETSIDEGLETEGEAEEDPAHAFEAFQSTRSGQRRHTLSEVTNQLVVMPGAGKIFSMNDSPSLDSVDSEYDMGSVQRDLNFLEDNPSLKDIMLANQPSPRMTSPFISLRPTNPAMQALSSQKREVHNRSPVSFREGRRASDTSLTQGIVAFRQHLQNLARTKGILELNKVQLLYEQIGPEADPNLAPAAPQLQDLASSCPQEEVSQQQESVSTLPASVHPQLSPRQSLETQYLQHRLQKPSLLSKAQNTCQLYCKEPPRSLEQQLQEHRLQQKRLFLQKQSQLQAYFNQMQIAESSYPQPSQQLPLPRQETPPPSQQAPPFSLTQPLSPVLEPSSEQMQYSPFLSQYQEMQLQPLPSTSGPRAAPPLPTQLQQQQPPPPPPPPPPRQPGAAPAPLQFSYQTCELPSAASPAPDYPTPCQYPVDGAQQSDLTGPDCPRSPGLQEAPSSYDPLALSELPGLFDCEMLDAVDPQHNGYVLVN

As a reminder, the EC50 is the concentration at which the effect is half-maximal. On to `COc1ccc(N(C(=O)Nc2c(C)cccc2C)c2cc(Nc3ccc(N4CCN(C)CC4)cc3)ncn2)c(OC)c1` [HG-9-91-01], for which the “concentrations that suppressed/reduced zymosan-induced IL-10 production” value in test [1] (BMDCs) is recorded as “greater than 1 μM”. In addition, the EC50 in test [1] (BMDCs pre-treated 2 days, zymosan 18 hr, ELISA, read-out: EC50 of potentiation of zymosan-induced IL-10 production) was roughly 200 nM.
One may read the IC50 as the concentration at which inhibition is half-maximal. For `Cc1cccc(C)c1NC(=O)N1C/C=C\COc2cccc(c2)Nc2cc1ncn2` [I-1], at SIK2, the remaining activity at 0.1 µM was determined as 10%, the remaining activity at 1 µM turned out to be 5% and the IC50 stood at 9.72 nM. Also, the EC50 in test [1] (setting [2]) is 5620 nM.
Turning to `CCN1CCN(c2ccc(Nc3cc(-n4ccnc4Nc4c(C)cccc4C)ncn3)cc2)CC1` [II-1, 6-(2-((2,6-dimethylphenyl)amino)-1H-imidazol-1-yl)-N-(4-(4-ethylpiperazin-1-yl)phenyl)pyrimidin-4-amine], at SIK2, the remaining activity at 0.1 µM was found to be 37%, the remaining activity at 1 µM stood at 9% and the IC50 stood at 65.1 nM. Moreover, the EC50 in test [1] (setting [2]) was found to be 1460 nM.
